Results as given in patent US9956214B2, “5-aminopyrazole-4-carboxamide inhibitors of CDPK1 from T. gondii and C. parvum” (UNIVERSITY OF WASHINGTON THROUGH ITS CENTER FOR …, priority 2013, dated 2018).

Tests used:
[1] = Solubility at pH 6.5; type: physicochemical; conditions: in words
[2] = Oral availability; type: in vivo; conditions: compared with compound 9 (1294)
[3] = Stability; conditions: in words
[4] = test system: 80 human protein kinases (hPKs); assay: AbbVie panel of 80 human protein kinases; type: biochemical; conditions: no hPKs inhibited
[5] = test system: 24 off-target liabilities (e.g. ion channels, G-protein receptors); assay: 24 off-target liability screen
[6] = test system: C. parvum Iowa strain; assay: C. parvum infection in mice (beige/SCID mouse model); conditions: oral gavage 20 mg/kg 8 AM and 40 mg/kg 5 PM, days 5-14 after infection; each time point except Days 0 and 3; p ≤0.05
[7] = target: Kdr (Homo sapiens (Human), UniProt P35968); assay: Kinase panel selectivity: Kdr; type: biochemical
[8] = target: Prkcn (Homo sapiens (Human), UniProt O94806); assay: Kinase panel selectivity: Prkcn; type: biochemical
[9] = target: hERG (Homo sapiens (Human), UniProt Q12809); assay: hERG inhibitory activity; type: binding; conditions: in words, as compared to compound 9 (1294)
hERG, sequence (Q12809 whole entry): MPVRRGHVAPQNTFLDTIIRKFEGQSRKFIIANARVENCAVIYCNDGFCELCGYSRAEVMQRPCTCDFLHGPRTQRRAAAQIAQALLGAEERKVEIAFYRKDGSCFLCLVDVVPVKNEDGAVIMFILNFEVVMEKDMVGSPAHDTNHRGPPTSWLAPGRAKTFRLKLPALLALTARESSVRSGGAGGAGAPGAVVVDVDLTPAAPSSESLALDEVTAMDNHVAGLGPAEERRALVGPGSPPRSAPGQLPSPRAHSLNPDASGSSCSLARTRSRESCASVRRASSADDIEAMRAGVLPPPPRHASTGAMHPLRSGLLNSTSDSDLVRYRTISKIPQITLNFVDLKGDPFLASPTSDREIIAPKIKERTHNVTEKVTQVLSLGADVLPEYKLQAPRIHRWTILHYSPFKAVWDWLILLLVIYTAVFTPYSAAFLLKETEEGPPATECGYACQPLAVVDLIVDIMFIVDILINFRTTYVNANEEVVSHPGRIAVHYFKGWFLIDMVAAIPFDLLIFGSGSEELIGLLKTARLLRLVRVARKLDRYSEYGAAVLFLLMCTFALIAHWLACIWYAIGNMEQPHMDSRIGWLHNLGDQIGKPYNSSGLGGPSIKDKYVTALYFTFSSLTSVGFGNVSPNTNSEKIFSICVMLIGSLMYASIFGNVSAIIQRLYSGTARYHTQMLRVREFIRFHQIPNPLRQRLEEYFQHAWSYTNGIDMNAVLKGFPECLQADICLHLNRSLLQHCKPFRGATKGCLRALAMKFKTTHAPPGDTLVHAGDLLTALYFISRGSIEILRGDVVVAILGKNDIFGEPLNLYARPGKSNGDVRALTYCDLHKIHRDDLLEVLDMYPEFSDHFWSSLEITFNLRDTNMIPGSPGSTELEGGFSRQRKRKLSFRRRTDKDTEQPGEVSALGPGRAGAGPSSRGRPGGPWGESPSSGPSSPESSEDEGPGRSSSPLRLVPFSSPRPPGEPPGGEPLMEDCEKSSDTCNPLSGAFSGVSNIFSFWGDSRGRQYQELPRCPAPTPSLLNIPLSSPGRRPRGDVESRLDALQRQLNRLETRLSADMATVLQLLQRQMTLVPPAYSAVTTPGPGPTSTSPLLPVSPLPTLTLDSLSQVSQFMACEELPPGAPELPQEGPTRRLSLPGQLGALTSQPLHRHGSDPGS

Prkcn, sequence (O94806 whole entry, looked up, species assumed): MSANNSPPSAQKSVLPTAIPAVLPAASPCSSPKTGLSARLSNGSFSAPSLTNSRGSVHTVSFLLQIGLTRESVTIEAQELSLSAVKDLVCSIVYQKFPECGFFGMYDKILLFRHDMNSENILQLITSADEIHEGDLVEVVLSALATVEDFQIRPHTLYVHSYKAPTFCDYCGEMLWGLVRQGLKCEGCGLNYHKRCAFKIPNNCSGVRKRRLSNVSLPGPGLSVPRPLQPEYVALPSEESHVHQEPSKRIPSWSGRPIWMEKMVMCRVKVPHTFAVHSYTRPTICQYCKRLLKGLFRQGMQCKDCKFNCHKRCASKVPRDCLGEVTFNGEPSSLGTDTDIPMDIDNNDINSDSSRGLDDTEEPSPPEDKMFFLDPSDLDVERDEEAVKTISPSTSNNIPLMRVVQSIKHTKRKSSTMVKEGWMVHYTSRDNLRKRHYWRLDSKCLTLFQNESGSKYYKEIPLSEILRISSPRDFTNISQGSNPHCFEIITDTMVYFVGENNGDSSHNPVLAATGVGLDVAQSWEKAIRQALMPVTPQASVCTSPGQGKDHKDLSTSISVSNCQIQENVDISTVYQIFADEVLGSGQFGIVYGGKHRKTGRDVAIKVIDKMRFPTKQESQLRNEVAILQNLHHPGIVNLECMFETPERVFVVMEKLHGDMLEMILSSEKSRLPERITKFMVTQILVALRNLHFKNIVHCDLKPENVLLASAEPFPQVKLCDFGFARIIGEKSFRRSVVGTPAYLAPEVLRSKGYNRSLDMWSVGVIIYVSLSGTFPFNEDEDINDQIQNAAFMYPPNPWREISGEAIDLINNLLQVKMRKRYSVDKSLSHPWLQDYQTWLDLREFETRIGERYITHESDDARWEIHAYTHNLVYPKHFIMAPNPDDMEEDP
Kdr, sequence (P35968 20-1356, species assumed): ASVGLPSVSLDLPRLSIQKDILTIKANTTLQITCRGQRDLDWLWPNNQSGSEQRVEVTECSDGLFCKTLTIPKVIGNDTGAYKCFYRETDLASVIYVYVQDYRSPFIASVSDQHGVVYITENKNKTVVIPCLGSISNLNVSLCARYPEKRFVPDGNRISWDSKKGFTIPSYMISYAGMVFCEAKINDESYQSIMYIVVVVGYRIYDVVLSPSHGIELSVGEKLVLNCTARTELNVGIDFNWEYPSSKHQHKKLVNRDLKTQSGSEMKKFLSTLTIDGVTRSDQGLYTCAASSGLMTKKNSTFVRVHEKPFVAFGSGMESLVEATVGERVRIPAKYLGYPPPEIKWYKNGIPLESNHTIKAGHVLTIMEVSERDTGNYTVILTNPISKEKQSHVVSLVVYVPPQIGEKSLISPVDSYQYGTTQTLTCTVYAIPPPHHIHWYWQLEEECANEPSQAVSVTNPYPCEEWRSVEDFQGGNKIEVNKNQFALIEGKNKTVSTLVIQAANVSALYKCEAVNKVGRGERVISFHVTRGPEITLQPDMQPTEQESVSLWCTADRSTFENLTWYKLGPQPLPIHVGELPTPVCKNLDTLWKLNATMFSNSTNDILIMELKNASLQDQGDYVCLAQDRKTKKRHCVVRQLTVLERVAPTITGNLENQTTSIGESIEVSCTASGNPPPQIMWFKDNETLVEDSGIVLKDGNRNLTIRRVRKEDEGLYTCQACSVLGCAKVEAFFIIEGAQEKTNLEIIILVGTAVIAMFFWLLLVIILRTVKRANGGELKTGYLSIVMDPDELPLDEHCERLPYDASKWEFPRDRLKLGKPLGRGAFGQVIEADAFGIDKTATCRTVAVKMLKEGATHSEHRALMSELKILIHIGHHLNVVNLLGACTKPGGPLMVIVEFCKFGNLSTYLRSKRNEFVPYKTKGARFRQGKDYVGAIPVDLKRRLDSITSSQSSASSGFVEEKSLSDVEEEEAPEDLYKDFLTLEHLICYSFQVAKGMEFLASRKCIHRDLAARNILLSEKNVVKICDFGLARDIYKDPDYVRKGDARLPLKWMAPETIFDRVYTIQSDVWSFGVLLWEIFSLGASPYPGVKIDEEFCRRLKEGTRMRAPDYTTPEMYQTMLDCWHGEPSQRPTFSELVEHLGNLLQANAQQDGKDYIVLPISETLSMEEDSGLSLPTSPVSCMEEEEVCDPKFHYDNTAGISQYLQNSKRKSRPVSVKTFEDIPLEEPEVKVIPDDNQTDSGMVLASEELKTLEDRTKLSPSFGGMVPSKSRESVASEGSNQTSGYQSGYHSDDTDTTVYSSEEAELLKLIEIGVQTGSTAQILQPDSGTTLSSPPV

## CCOc1ccc2cc(-c3nn(C(C)(C)C)c(N)c3C(N)=O)cnc2c1 [Compound 39, 5-amino-1-(tert-butyl)-3-(7-ethoxyquinolin-3-yl)-1H-pyrazole-4-carboxamide]
[1]
  solubility: good solubility
[2]
  oral availability: higher oral availability
[3]
  stability: good stability
[4]
  inhibition of hPKs, level without inhibition: > 3 µM
[5]
  signal in 24 off-target liability screen: no signal was detected
[6]
  oocysts shed in stool, difference between treated and vehicle groups: the difference was significant
[7]
  Kdr pKi: 6.24
[8]
  Prkcn pKi: 6.37
[9]
  hERG inhibitory activity: no hERG inhibitory activity
